Assay results reported in patent US6900019B1, “In-situ cell extraction and assay method” (Amersham Biosciences UK Limited, priority 1997, dated 2005).

Tested on: Mouse 3T3 cells
Assay: Intracellular prostaglandin E2 in A23187-stimulated mouse 3T3 cells (EIA)
Assay type: cell-based
Settings: 100 μM A23187, 5 minutes
Experimental: Mouse 3T3 cells were cultured in DMEM media containing 10% (v/v) foetal calf sera (FCS). For PGE2 assays, cells were seeded into standard 96-well tissue culture plates in 100 μl volumes (between 10^5-10^6 cells/ml). Cells were cultured overnight at 37° C. in a 95% air/5% CO2 atmosphere. At this stage a check was made to ensure cells remained viable with Trypan blue exclusion.
On day 2, working solutions of A23187 (1-100 μM final concentration) were prepared in DMEM media in order to stimulate the production of PGE2. Two controls were prepared (a DMSO and a culture media only control). Here cells were cultured in the absence of A23187. Test cell cultures were stimulated with the calcium ionophore A23187 for 5 minutes at room temperature. The culture supernatant was decanted, cells were washed with phosphate buffered saline and lysed with 100 μl/well 0.5% (w/v) DTAB prepared in assay buffer. A check for cell lysis was made with a second Trypan blue exclusion test.
Working PGE2 standards (2.5-320 pg/well) were prepared in polypropylene tubes with assay buffer containing 0.5% (w/v) DTAB. […] Non-specific binding was measured in the absence of PGE2 antisera. […] The optical densities were determined with a microtitre plate spectrophotometer set at 450 nm. Intracellular PGE2 levels were determined using log/linear analysis with reference to a standard curve. […]

With CNc1ccc2oc(C[C@H]3O[C@@]4(CC[C@H]3C)O[C@H]([C@H](C)C(=O)c3ccc[nH]3)[C@H](C)C[C@H]4C)nc2c1C(=O)O [A23187] the “Intracellular PGE2 levels” value was “over 400 pg/10^6 cells”.
